Paper PMC9848300, “Discovery of novel enasidenib analogues targeting inhibition of mutant isocitrate dehydrogenase 2 as antileukaemic agents” (Journal of Enzyme Inhibition and Medicinal Chemistry, 2023)
Where “and” joins values, the source holds several entries; their conditions need not be identical. Identical values can stand only once.

Assays:
CCRF-CEM = experiment: NCI 60 antitumor screening (single dose / five doses); type: cell-based; details: Homo sapiens; CCRF-CEM (leukaemia), single dose 10 μM; read-out: Growth inhibition percentage (GI %)
HL-60(TB) = experiment: as above; type: cell-based; details: Homo sapiens; for inhibition at 10 µM: HL-60(TB) (leukaemia), single dose 10 μM, read-out: Growth inhibition percentage (GI %)
MOLT-4 = experiment: as above; type: cell-based; details: Homo sapiens; MOLT-4 (leukaemia), single dose 10 μM; read-out: Growth inhibition percentage (GI %)
RPMI-8226 = experiment: as above; type: cell-based; details: Homo sapiens; for inhibition at 10 µM: RPMI-8226 (leukaemia), single dose 10 μM, read-out: Growth inhibition percentage (GI %)
A549/ATCC = experiment: NCI 60 antitumor screening (single dose); type: cell-based; details: Homo sapiens; A549/ATCC (non-small cell lung cancer), single dose 10 μM; read-out: Growth inhibition percentage (GI %)
Outline: (§1)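 Read-out is percent growth (G%) of treated cancer cells relative to untreated, converted to percent inhibition as 100 − G%. Each compound was applied once at 10 μM across 60 human tumour lines under the NCI protocol.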

CAKI-1 = experiment: NCI 60 antitumor screening (single dose); type: cell-based; details: Homo sapiens; CAKI-1 (renal cancer), single dose 10 μM; read-out: Growth inhibition percentage (GI %)
Outline: as §1

M14 = experiment: NCI 60 antitumor screening (single dose); type: cell-based; details: Homo sapiens; M14 (melanoma), single dose 10 μM; read-out: Growth inhibition percentage (GI %)
Outline: as §1

MCF7 = experiment: NCI 60 antitumor screening (single dose); type: cell-based; details: Homo sapiens; MCF7 (breast cancer), single dose 10 μM; read-out: Growth inhibition percentage (GI %)
Outline: as §1

NCI-H23 = experiment: NCI 60 antitumor screening (single dose); type: cell-based; details: Homo sapiens; NCI-H23 (non-small cell lung cancer), single dose 10 μM; read-out: Growth inhibition percentage (GI %)
Outline: (§2)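 Percent growth inhibition, calculated as 100 minus percent growth (G%) of treated cells, following a single 10 μM exposure in the NCI 60 human cancer cell screen; triplicate runs.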

NCI-H322M = experiment: NCI 60 antitumor screening (single dose); type: cell-based; details: Homo sapiens; NCI-H322M (non-small cell lung cancer), single dose 10 μM; read-out: Growth inhibition percentage (GI %)
Outline: as §1

NCI-H522 = experiment: NCI 60 antitumor screening (single dose); type: cell-based; details: Homo sapiens; NCI-H522 (non-small cell lung cancer), single dose 10 μM; read-out: Growth inhibition percentage (GI %)
Outline: as §2

SF-268 = experiment: NCI 60 antitumor screening (single dose); type: cell-based; details: Homo sapiens; SF-268 (CNS cancer), single dose 10 μM; read-out: Growth inhibition percentage (GI %)
Outline: as §2

HCT-15 = experiment: NCI 60 antitumor screening (single dose / five doses); type: cell-based; details: Homo sapiens; for inhibition at 10 µM: HCT-15 (colon cancer), single dose 10 μM, read-out: Growth inhibition percentage (GI %)
HT29 = experiment: as above; type: cell-based, human; details: Homo sapiens; for inhibition at 10 µM: HT-29, HT29 (colon cancer), single dose 10 μM, read-out: Growth inhibition percentage (GI %)
SW-620 = experiment: as above; type: cell-based, human; details: Homo sapiens; for inhibition at 10 µM: SW-620 (colon cancer), single dose 10 μM, read-out: Growth inhibition percentage (GI %)
SF-539 = experiment: as above; type: cell-based; details: Homo sapiens; for inhibition at 10 µM: SF-539 (CNS cancer), single dose 10 μM, read-out: Growth inhibition percentage (GI %)
SNB-75 = experiment: as above; type: cell-based; details: Homo sapiens; for inhibition at 10 µM: SNB-75 (CNS cancer), single dose 10 μM, read-out: Growth inhibition percentage (GI %)
MALME-3M = experiment: as above; type: cell-based; details: Homo sapiens; for inhibition at 10 µM: MALME-3M (melanoma), single dose 10 μM, read-out: Growth inhibition percentage (GI %)
MDA-MB-435 = experiment: as above; type: cell-based; details: Homo sapiens; for inhibition at 10 µM: MDA-MB-435 (melanoma), single dose 10 μM, read-out: Growth inhibition percentage (GI %)
SK-MEL-5 = experiment: as above; type: cell-based; details: Homo sapiens; for inhibition at 10 µM: SK-MEL-5 (melanoma), single dose 10 μM, read-out: Growth inhibition percentage (GI %)
UACC-62 = experiment: as above; type: cell-based; details: Homo sapiens; for inhibition at 10 µM: UACC-62 (melanoma), single dose 10 μM, read-out: Growth inhibition percentage (GI %)
786-0 = experiment: as above; type: cell-based; details: Homo sapiens; for inhibition at 10 µM: 786-0, 786-0 (renal cancer), single dose 10 μM, read-out: Growth inhibition percentage (GI %)
A498 = experiment: as above; type: cell-based; details: Homo sapiens; for inhibition at 10 µM: A498 (renal cancer), single dose 10 μM, read-out: Growth inhibition percentage (GI %)
RXF 393 = experiment: as above; type: cell-based; details: Homo sapiens; for inhibition at 10 µM: RXF 393 (renal cancer), single dose 10 μM, read-out: Growth inhibition percentage (GI %)
UO-31 = experiment: as above; type: cell-based; details: Homo sapiens; for inhibition at 10 µM: UO-31 (renal cancer), single dose 10 μM, read-out: Growth inhibition percentage (GI %)
MDA-MB-231/ATCC = experiment: as above; type: cell-based; details: Homo sapiens; for inhibition at 10 µM: MDA-MB-231/ATCC (breast cancer), single dose 10 μM, read-out: Growth inhibition percentage (GI %)
BT-549 = experiment: as above; type: cell-based; details: Homo sapiens; for inhibition at 10 µM: BT-549 (breast cancer), single dose 10 μM, read-out: Growth inhibition percentage (GI %)
[1] = tested on: 60 human subpanel cancer cell lines; experiment: NCI 60 antitumor screening, mean over the panel (single dose); type: cell-based; details: mean over 60 cancer cell lines, single dose 10 μM
Outline: as §2

`Fc1cccc(Cl)c1/C=N/Nc1nc(N/N=C/c2c(F)cccc2Cl)nc(N2CCCCC2)n1` [compound 7l, 2,4-Bis[(E)-2-[(2-Chloro-6-fluorophenyl)methylidene]hydrazin-1-yl]-6-(piperidin-1-yl)-1,3,5-triazine] showed an inhibition at 10 µM (CCRF-CEM) of 77.7%, an inhibition at 10 µM (HL-60(TB)) of 98.7% and a GI50 (HL-60(TB); HL-60(TB), five doses (0.01–100 μM), read-out: GI50) of 2000 nM. For the same compound, the inhibition at 10 µM (MOLT-4) was 86.3%, the inhibition at 10 µM (RPMI-8226) was 96.7% and the GI50 (RPMI-8226; RPMI-8226, five doses (0.01–100 μM), read-out: GI50) was 2260 nM. For the same compound, the inhibition at 10 µM (A549/ATCC) was 78.4%, the inhibition at 10 µM (CAKI-1) was 85.9% and the inhibition at 10 µM (M14) was 88.1%. For the same compound, the inhibition at 10 µM (MCF7) was 96.9%, the inhibition at 10 µM (NCI-H23) was 55.2% and the inhibition at 10 µM (NCI-H322M) was 64.2%. It also gave an inhibition at 10 µM (NCI-H522) of 89.6%, an inhibition at 10 µM (SF-268) of 63.3% and an inhibition at 10 µM (HCT-15) of 96.1%. For the same compound, the GI50 (HCT-15; HCT-15, five doses (0.01–100 μM), read-out: GI50) was 2820 nM, the GI50 (HT29; HT-29, HT29, five doses (0.01–100 μM), read-out: GI50) was 2900 nM and the inhibition at 10 µM (HT29) was 96.5%. For the same compound, the GI50 (SW-620; SW-620, SW-620, five doses (0.01–100 μM), read-out: GI50) was 3510 nM, the inhibition at 10 µM (SW-620) was 82.8% and the inhibition at 10 µM (SF-539) was 43.8%. For the same compound, the GI50 (SF-539; SF-539, five doses (0.01–100 μM), read-out: GI50) was 7650 nM, the inhibition at 10 µM (SNB-75) was 62.5% and the GI50 (SNB-75; SNB-75, five doses (0.01–100 μM), read-out: GI50) was 2360 nM. It also gave an inhibition at 10 µM (MALME-3M) of 95.8%, a GI50 (MALME-3M; MALME-3M, five doses (0.01–100 μM), read-out: GI50) of 2210 nM and an inhibition at 10 µM (MDA-MB-435) of 96.2%. The GI50 (MDA-MB-435; MDA-MB-435, five doses (0.01–100 μM), read-out: GI50) was 2860 nM, the inhibition at 10 µM (SK-MEL-5) was 41% and the GI50 (SK-MEL-5; SK-MEL-5, five doses (0.01–100 μM), read-out: GI50) was 1880 nM. The inhibition at 10 µM (UACC-62) was 81.7%, the GI50 (UACC-62; UACC-62, five doses (0.01–100 μM), read-out: GI50) was 2350 nM and the inhibition at 10 µM (786-0) was 71.7%. It also gave a GI50 (786-0; 786-0, five doses (0.01–100 μM), read-out: GI50) of 3440 nM, an inhibition at 10 µM (A498) of 47.2% and a GI50 (A498; A498, five doses (0.01–100 μM), read-out: GI50) of 2400 nM. The inhibition at 10 µM (RXF 393) was 96.6%, the GI50 (RXF 393; RXF 393, five doses (0.01–100 μM), read-out: GI50) was 2650 nM and the inhibition at 10 µM (UO-31) was 91%. It also gave a GI50 (UO-31; UO-31, five doses (0.01–100 μM), read-out: GI50) of 2010 nM, a GI50 (MDA-MB-231/ATCC; MDA-MB-231/ ATCC, five doses (0.01–100 μM), read-out: GI50) of 7650 nM and an inhibition at 10 µM (MDA-MB-231/ATCC) of 57.9%. The inhibition at 10 µM (BT-549) was 31.6%, the GI50 (BT-549; BT-549, five doses (0.01–100 μM), read-out: GI50) was 4450 nM and the “Mean GI %” value [1] was 81% and 81.15%.

`O=C1Nc2ccc(Cl)cc2/C1=N\Nc1nc(N/N=C2/C(=O)Nc3ccc(Cl)cc32)nc(N2CCOCC2)n1` [compound 8b, (3E)-5-Chloro-3-[2–(4-{2-[(3E)-5-chloro-2-oxo-2,3-dihydro-1H-indol-3-ylidene]hydrazin-1-yl}6-(morpholin-4-yl)-1,3,5-triazin-2-yl)hydrazin-1-ylidene]-2,3-dihydro-1H-indol-2-one] showed an inhibition at 10 µM (CCRF-CEM) of 79.8%, an inhibition at 10 µM (HL-60(TB)) of 27.8% and an inhibition at 10 µM (MOLT-4) of 37.5%. The inhibition at 10 µM (RPMI-8226) was 63.6%, the inhibition at 10 µM (A549/ATCC) was -1.37% and the inhibition at 10 µM (CAKI-1) was 28%. It also gave an inhibition at 10 µM (M14) of 22.5%, an inhibition at 10 µM (MCF7) of 56.9% and an inhibition at 10 µM (NCI-H23) of 82.8%. The inhibition at 10 µM (NCI-H322M) was 21.9%, the inhibition at 10 µM (NCI-H522) was 94.9% and the inhibition at 10 µM (SF-268) was 50.9%. It also gave an inhibition at 10 µM (HCT-15) of 8.4%, an inhibition at 10 µM (HT29) of 8.9% and an inhibition at 10 µM (SW-620) of 25.7%. The inhibition at 10 µM (SF-539) was 84%, the inhibition at 10 µM (SNB-75) was 101% and the inhibition at 10 µM (MALME-3M) was 43.6%. It also gave an inhibition at 10 µM (MDA-MB-435) of 36.5%, an inhibition at 10 µM (SK-MEL-5) of 53.9% and an inhibition at 10 µM (UACC-62) of 48.4%. For the same compound, the inhibition at 10 µM (786-0) was 26.3%, the inhibition at 10 µM (A498) was 78.4% and the inhibition at 10 µM (RXF 393) was 86.3%. It also gave an inhibition at 10 µM (UO-31) of 21.4%, an inhibition at 10 µM (MDA-MB-231/ATCC) of 63.7% and an inhibition at 10 µM (BT-549) of 106%. For the same compound, the “Mean GI %” value [1] was 47.89%.
